{"source": "ChEMBL document CHEMBL1201862", "about": "“PubChem BioAssay data set” (2004)", "key": {"[1]": {"tested_on": "A-375", "experiment": "A375 melanoma cell viability reduction, dose response, counter-screen for MITF modulator project, cherry-pick samples, set 2 (AID 540335)", "assay_type": "functional, cell-based", "details": "Homo sapiens"}, "[2]": {"tested_on": "A-375", "experiment": "MITF: Counter assay: A375 proliferation Measured in Cell-Based System Using Plate Reader - 2084-03_Inhibitor_Dose_DryPowder_Activity. [Related pubchem assays (depositor defined):AID488944]", "assay_type": "functional", "details": "Homo sapiens"}, "[3]": {"biological_target": "Voltage-gated inwardly rectifying potassium channel KCNH2 (Homo sapiens, UniProt Q12809)", "sequence (Q12809 whole entry)": "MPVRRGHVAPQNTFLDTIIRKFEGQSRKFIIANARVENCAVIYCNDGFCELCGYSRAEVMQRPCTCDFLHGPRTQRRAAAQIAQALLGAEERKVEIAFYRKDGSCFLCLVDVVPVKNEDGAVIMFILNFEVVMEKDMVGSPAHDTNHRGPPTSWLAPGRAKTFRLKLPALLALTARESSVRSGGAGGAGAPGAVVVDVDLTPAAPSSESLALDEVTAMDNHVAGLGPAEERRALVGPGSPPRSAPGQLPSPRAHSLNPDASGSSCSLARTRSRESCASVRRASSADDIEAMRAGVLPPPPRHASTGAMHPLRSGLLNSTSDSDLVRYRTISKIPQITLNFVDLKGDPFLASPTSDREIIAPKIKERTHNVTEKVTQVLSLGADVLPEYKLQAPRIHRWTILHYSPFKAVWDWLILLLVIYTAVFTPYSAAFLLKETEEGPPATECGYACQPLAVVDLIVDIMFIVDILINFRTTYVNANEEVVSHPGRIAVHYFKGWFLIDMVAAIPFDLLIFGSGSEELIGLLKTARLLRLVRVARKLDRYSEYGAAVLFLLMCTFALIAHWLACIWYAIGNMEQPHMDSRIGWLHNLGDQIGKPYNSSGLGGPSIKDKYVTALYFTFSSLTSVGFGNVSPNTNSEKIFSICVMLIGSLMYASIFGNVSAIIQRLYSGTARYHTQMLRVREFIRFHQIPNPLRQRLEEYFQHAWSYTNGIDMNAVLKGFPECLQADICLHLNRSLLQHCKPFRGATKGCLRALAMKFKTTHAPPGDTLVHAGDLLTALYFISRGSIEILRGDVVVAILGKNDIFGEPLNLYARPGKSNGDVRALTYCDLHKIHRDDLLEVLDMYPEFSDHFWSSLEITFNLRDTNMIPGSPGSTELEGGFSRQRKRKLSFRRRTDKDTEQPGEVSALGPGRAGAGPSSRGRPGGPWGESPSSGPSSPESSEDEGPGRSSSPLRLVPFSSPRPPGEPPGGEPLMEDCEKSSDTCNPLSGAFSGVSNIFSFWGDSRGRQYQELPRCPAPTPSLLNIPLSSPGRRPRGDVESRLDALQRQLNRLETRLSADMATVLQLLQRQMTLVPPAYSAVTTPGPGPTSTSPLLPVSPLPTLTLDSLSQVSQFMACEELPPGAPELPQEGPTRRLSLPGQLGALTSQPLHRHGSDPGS", "details": "Potency"}, "[4]": {"biological_target": "T1, CAAX prenyl protease 2 (Saccharomyces cerevisiae S288c, UniProt Q03530)", "T1 sequence (Q03530 whole entry)": "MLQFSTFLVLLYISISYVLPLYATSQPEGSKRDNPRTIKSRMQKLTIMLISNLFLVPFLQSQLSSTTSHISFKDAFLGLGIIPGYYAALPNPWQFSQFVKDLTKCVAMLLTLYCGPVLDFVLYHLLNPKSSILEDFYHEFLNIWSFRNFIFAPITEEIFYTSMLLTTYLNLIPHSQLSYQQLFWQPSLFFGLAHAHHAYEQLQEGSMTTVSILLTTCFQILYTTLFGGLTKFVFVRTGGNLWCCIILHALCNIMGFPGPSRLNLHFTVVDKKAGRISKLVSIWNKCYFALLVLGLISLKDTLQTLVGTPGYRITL", "assay_type": "biochemical"}, "[5]": {"biological_target": "T2, Endoribonuclease toxin MazF (Escherichia coli K-12, UniProt P0AE70)", "T2 sequence (P0AE70 whole entry)": "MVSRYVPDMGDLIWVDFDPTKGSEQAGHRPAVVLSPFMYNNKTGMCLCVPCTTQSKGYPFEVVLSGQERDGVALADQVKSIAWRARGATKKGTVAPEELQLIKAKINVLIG", "experiment": "MazF toxin RNase activators, dose response, biochemical, fluorescence, single-stranded RNA substrate, uHTS hits (AID 588481)", "assay_type": "functional"}, "[6]": {"biological_target": "T2, Endoribonuclease toxin MazF", "experiment": "fluorescent RNA oligo signal without MazF, dose response, counter-screen for MazEF activator project, biochemical, fluorescence, single-stranded RNase substrate (AID 588502)", "assay_type": "functional"}, "[7]": {"biological_target": "CAAX prenyl protease 1 (Saccharomyces cerevisiae S288c, UniProt P47154)", "sequence (P47154 whole entry)": "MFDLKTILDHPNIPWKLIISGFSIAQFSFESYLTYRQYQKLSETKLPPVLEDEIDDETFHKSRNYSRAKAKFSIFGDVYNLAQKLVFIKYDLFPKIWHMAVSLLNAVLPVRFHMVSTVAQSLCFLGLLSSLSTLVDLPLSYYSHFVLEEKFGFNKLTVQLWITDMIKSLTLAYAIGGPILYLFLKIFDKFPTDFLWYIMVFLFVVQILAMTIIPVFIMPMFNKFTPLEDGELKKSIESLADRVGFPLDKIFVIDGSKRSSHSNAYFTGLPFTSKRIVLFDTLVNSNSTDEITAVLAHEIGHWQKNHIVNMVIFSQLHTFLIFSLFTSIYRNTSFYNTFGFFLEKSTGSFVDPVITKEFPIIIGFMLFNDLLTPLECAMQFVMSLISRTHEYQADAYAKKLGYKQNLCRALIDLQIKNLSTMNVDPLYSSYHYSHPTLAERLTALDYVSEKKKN", "experiment": "Ste24 protease inhibitors, dose response, biochemical, S. cerevisiae, plate reader, cherry-pick (AID 488815)"}, "[8]": {"biological_target": "Melanocortin receptor 4 (Homo sapiens, UniProt P32245)", "sequence (P32245 whole entry)": "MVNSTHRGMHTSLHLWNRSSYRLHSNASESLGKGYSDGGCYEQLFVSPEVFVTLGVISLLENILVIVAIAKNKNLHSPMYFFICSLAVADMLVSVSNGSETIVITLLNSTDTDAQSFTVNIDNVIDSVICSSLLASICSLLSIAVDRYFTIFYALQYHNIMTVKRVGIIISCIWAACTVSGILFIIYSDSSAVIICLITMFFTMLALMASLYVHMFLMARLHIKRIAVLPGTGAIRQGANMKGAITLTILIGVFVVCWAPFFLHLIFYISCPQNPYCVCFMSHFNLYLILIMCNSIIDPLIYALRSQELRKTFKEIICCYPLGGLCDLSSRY", "assay_type": "functional, cell-based"}, "[9]": {"biological_target": "Trypsin (Sus scrofa, UniProt P00761)", "sequence (P00761 whole entry)": "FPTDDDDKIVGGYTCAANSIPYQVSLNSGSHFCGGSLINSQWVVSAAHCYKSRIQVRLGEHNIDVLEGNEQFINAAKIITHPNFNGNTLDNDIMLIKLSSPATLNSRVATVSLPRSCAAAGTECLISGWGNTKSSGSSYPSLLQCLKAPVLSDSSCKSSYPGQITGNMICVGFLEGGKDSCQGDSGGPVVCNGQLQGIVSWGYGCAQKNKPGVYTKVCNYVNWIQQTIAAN", "experiment": "porcine trypsin inhibitors, dose response, selectivity assay for Rce1 protease inhibitor project, biochemical, quenched peptide fluorescence, cherry-pick (AID 488789)"}, "[10]": {"biological_target": "T3, sn-1-specific diacylglycerol lipase ABHD11 (Mus musculus, UniProt Q8K4F5)", "T3 sequence (Q8K4F5 whole entry)": "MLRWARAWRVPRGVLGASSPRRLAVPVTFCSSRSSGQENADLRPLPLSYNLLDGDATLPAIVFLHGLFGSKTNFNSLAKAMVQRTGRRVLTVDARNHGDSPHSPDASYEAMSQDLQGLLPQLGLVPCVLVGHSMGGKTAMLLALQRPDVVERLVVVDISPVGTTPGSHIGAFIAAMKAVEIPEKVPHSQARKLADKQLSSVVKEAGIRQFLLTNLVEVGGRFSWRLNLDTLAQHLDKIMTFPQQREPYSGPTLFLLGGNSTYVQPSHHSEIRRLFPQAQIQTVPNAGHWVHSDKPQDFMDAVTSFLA", "experiment": "Late stage assay provider results from the probe development effort to identify inhibitors of LYPLA1 and LYPLA2: Gel-based Activity-Based Protein Profiling (ABPP) IC50 for off-target ABHD11. [Related pubchem assays (depositor defined):AID2174, AID2202, AID2203, AID2233, AID504482, AID504498, AID504505, AID504507, AID504510, AID504520, AID504522, AID504892]", "assay_type": "functional"}, "[11]": {"biological_target": "T3, sn-1-specific diacylglycerol lipase ABHD11", "experiment": "Late stage assay provider results from the probe development effort to identify inhibitors of LYPLA1: fluorescence-based cell-based gel-based Activity-Based Protein Profiling (ABPP) IC50 for anti-target ABHD11. [Related pubchem assays (depositor defined):AID2174, AID2177, AID2202, AID2203, AID2232, AID2233, AID493105, AID493108, AID493109, AID493110, AID493111, AID493154, AID493161, AID504892]", "assay_type": "functional"}, "[12]": {"biological_target": "Delta-type opioid receptor (Homo sapiens, UniProt P41143)", "sequence (P41143 whole entry)": "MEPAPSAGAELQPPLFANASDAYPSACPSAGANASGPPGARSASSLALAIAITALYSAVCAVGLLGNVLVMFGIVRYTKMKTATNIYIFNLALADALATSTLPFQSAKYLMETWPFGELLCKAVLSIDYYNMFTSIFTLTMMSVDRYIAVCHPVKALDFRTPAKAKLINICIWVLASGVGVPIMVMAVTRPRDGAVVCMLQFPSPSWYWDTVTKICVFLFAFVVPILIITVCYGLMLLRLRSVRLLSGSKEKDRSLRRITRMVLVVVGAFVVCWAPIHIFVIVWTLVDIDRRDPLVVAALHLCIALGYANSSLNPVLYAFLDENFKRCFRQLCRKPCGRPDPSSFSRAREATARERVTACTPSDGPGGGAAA", "experiment": "Counterscreen for agonists of heterodimerization of the mu 1 (OPRM1) and delta 1 (OPRD1) opioid receptors: Luminescence-based cell-based high throughput dose response assay to identify agonists of OPRD1 homodimerization. [Related pubchem assays (depositor defined):AID504326, AID504355, AID504692, AID504904, AID504905]", "assay_type": "functional"}, "[13]": {"biological_target": "T4, Short transient receptor potential channel 4 (Mus musculus, UniProt Q9QUQ5)", "T4 sequence (Q9QUQ5 whole entry)": "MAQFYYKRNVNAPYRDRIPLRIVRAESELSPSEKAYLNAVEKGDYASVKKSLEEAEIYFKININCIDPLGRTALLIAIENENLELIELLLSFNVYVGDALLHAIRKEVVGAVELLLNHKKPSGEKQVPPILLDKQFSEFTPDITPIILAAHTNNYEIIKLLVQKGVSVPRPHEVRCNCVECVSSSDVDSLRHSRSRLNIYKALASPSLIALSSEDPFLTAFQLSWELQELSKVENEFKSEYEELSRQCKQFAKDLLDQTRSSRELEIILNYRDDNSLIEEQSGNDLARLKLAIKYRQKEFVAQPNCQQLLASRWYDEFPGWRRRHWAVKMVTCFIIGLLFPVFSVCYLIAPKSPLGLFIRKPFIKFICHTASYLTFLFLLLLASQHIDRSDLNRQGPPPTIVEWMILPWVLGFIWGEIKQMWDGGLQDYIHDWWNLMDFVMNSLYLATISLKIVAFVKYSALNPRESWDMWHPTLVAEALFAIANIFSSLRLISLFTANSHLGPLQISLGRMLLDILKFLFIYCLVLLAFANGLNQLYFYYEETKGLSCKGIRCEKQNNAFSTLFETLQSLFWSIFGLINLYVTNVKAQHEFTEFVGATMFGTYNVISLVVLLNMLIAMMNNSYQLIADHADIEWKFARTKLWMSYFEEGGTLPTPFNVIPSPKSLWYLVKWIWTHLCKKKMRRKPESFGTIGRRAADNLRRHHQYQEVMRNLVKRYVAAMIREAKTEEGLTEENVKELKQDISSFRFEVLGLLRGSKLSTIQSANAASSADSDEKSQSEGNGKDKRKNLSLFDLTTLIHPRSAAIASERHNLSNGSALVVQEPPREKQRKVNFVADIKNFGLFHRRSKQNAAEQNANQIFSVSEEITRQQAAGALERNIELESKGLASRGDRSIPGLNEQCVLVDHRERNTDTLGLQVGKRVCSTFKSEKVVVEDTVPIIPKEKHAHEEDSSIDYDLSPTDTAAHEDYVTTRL", "experiment": "mouse TRPC4 channel activators, dose response, cell-based, HEK293 TRPC4/mu-opioid, Fluo-4 calcium (AID 434937)", "assay_type": "functional"}, "[14]": {"biological_target": "Mu-type opioid receptor (Homo sapiens, UniProt P35372)", "sequence (P35372 whole entry)": "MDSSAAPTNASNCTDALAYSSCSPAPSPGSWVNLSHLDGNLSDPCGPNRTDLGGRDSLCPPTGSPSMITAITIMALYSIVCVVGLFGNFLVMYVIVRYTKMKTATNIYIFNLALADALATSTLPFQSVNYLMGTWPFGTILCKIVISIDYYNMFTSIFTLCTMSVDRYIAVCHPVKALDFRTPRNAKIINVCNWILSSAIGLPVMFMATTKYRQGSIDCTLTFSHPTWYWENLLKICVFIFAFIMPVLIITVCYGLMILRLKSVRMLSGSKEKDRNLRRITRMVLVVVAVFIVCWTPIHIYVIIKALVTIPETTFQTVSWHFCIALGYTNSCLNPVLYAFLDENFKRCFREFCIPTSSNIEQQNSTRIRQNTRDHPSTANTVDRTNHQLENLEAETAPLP", "experiment": "Counterscreen for agonists of heterodimerization of the mu 1 (OPRM1) and delta 1 (OPRD1) opioid receptors: Luminescence-based cell-based high throughput dose response assay to identify agonists of OPRM1 homodimerization.", "assay_type": "functional"}, "[15]": {"biological_target": "5-hydroxytryptamine receptor 5A (Homo sapiens, UniProt P47898)", "sequence (P47898 whole entry)": "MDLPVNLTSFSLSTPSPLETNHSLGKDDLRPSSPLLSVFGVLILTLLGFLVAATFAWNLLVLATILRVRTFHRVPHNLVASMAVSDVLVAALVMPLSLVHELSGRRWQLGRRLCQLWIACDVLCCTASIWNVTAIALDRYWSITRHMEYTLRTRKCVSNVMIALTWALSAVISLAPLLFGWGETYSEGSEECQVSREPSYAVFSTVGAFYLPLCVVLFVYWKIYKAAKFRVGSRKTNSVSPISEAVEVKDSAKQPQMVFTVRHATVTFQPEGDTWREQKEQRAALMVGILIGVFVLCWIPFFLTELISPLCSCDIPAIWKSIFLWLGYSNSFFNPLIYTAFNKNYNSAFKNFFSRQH", "experiment": "Counterscreen for agonists of OPRM1-OPRD1 heterodimerization: luminescence-based cell-based high throughput dose response assay to identify agonists of 5-hydroxytryptamine (serotonin) 5A receptor (HTR5A). [Related pubchem assays (depositor defined):AID504326, AID504355, AID504692, AID504904, AID504905]", "assay_type": "functional"}, "[16]": {"experiment": "inhibitors of Trypanosoma cruzi host-cell infection, confirmation, beta-gal luminescence, NIH3T3 host cells (AID 2630)", "assay_type": "functional, cell-based", "details": "Mus musculus"}, "[17]": {"experiment": "Luminescence Cell-Based Dose Retest to Confirm Inhibitors of Cancer Stem Cells. [Related pubchem assays (depositor defined):AID2717, AID2721]", "assay_type": "functional", "details": "Homo sapiens"}, "[18]": {"experiment": "inhibitors of intracellular T. cruzi replication, confirmation, NIH3T3 host cells, beta-gal luminescence (AID 2044);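 further: luminescent beta-galactosidase reporter signal from transgenic T. cruzi replicating inside host cells; inhibitors lower the luminescence signal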", "assay_type": "functional, cell-based"}, "[19]": {"tested_on": "BJ", "experiment": "cells", "assay_type": "functional, cell-based", "details": "Homo sapiens"}, "[20]": {"tested_on": "BJ", "experiment": "cytotoxicity toward BJ-TERT-LT-ST fibroblasts, dose response, cell-based, RAS-independent, luminescence (AID 1935);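 further: BJ fibroblasts immortalized with TERT plus LT and ST oncogenes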", "assay_type": "functional", "details": "Homo sapiens"}, "[21]": {"tested_on": "BJ", "experiment": "cytotoxicity toward BJ-TERT fibroblasts, dose response, cell-based, RAS-independent, luminescence (AID 1933)", "assay_type": "functional", "details": "Homo sapiens"}, "[22]": {"experiment": "cytotoxicity in HMLE control line with eGFP shRNA, dose response, counter-screen for HMLE_sh_ECad selective toxicity project, cell-based, HMLE_sh_eGFP, luminescence (AID 463074);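 further: HMLE human mammary epithelial cells expressing control shRNA against eGFP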", "assay_type": "functional, Homo sapiens"}, "[23]": {"experiment": "cytotoxicity toward DRD oncogenic fibroblasts, dose response, cell-based, non-viral oncogenic, luminescence (AID 1934)", "assay_type": "functional", "details": "Homo sapiens"}, "[24]": {"experiment": "cytotoxicity toward NIH3T3 fibroblasts, dose response, counter-screen, cell-based, ATP luminescence, mouse fibroblasts (AID 2010);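 further: cells exposed to compound for about 90 hours before reading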", "assay_type": "functional"}}, "note": "Calls of active or inactive are those of the source.", "data": [{"compound": "Cc1csc(NC(=O)Cc2c(F)cccc2Cl)n1", "values": [{"measurement": "AC50", "setting": "[1]", "result": "> 35 µM (active)"}, {"measurement": "AC50", "setting": "[2]", "result": "> 35 µM (active)"}]}, {"compound": "C(=C/c1ccccc1)/c1ccccc1", "values": [{"measurement": "AC50", "setting": "[3]", "result": "22.4 µM (inconclusive)"}]}, {"compound": "Cc1nc(NC(=O)c2cccc(-c3cc4ccccc4oc3=O)c2)ccc1Br", "values": [{"measurement": "AC50", "setting": "[4]", "result": "> 100 µM (inactive)"}, {"measurement": "EC50", "setting": "[5]", "result": "> 99 µM (inactive)"}, {"measurement": "EC50", "setting": "[6]", "result": "> 99 µM (inactive)"}, {"measurement": "AC50", "setting": "[7]", "result": "11.9 µM (active)"}, {"measurement": "EC50", "setting": "[8]", "result": "> 89.2 µM (inactive)"}, {"measurement": "AC50", "setting": "[9]", "result": "16.6 µM (active)"}]}, {"compound": "CCC1CCCCN1C(=O)n1ncc(C(O)(c2ccccc2)c2ccccc2)n1", "note": "(centres undefined)", "values": [{"measurement": "IC50", "setting": "[10]", "result": "0.015 µM (active)"}, {"measurement": "IC50", "setting": "[11]", "result": "0.000678 µM (active)"}]}, {"compound": "Cc1ccc(Cl)cc1NC(=O)CNCC(c1ccccc1)N(C)C", "note": "(centres undefined)", "values": [{"measurement": "EC50", "setting": "[12]", "result": "> 92.5 µM (inactive)"}, {"measurement": "EC50", "setting": "[13]", "result": "0.376 µM (active)"}, {"measurement": "EC50", "setting": "[14]", "result": "> 92.5 µM (inactive)"}, {"measurement": "EC50", "setting": "[15]", "result": "> 92.5 µM (inactive)"}]}, {"compound": "Cc1ccc(NC(=O)CCC(=O)N/N=C/c2ccc(C)o2)c(C)c1", "values": [{"measurement": "EC50", "setting": "[16]", "result": "195 µM (inactive)"}]}, {"compound": "CN1CCN(c2ccc(C(=O)c3ccccc3)cc2[N+](=O)[O-])CC1", "values": [{"measurement": "AC50", "setting": "[17]", "result": "2.09 µM (active)"}, {"measurement": "EC50", "setting": "[18]", "result": "0.399 µM (active)"}, {"measurement": "EC50", "setting": "[19]", "result": "> 150 µM (not active)"}, {"measurement": "EC50", "setting": "[20]", "result": "> 150 µM (inconclusive)"}, {"measurement": "EC50", "setting": "[21]", "result": "> 150 µM (not active)"}, {"measurement": "AC50", "setting": "[22]", "result": "77.6 µM (active)"}, {"measurement": "EC50", "setting": "[23]", "result": "> 150 µM (not active)"}, {"measurement": "EC50", "setting": "[24]", "result": "> 60 µM (not active)"}]}]}
